Assay results: PMC6155340, “Isolation and Structure Identification of Novel Brominated Diketopiperazines from Nocardia ignorata—A Lichen-Associated Actinobacterium” (Molecules : A Journal of Synthetic Chemistry and Natural …, 2017)
Converted amounts (≈) assume the structure as drawn. Non-standard residues stand in square brackets, D forms with d. Residues, ends and D or L forms follow the SMILES beside them. *: point of attachment. Tyr(3-Br) = N[C@@H](Cc1ccc(O)c(Br)c1)C(=O)O; Boc = CC(C)(C)OC(=O)*

Legend:
[1] = Cytotoxic activity, standard tetrazolium (MTT) assay on HaCaT cells; type: cell-based; conditions: human, HaCaT keratinocyte cells, 24 h incubation with compound, 1-200 µg/mL
Description: (§1) Cytotoxic properties of pure compounds were determined with a standard tetrazolium assay. B16 (6000 cells/well) and HaCaT (10,000 cells/well) cells were seeded in RPMI 1640 medium with 5% fetal calf serum (FCS) and antibiotic at day 0 in well-plate. Incubation was performed at 37 °C in an atmosphere of 5% CO2. After 24 h of incubation, compounds were added at different concentrations (1, 10, 50, 100, and 200 µg/mL), and the plate was incubated 24 h more (37 °C, 5% CO2). Cell growth and viability were then measured at 540 nm, using a MTT (3-[4,5-dimethylthiazol-2-yl]-2,5-diphenyltetrazolium bromide) assay. Each experiment was repeated at least three times.

[2] = Cytotoxic activity, standard tetrazolium (MTT) assay on B16 cells; type: cell-based, murine; conditions: mouse, B16 melanoma cells, 24 h incubation with compound, 1-200 µg/mL
Description: as §1

SMILES: O=C1N[C@@H](Cc2ccc(O)cc2)C(=O)N2CCC[C@H]12 [Compound 3, cyclo (D-Pro-L-Tyr)]
- IC50 at 24 h [1]: > 200 mg/L
- IC50 at 24 h [2]: > 200 mg/L

SMILES: COC(=O)[C@@H]1CCCN1C(=O)[C@H](Cc1ccc(O)c(Br)c1)NC(=O)OC(C)(C)C [Compound 13b, Methyl ((S)-3-(3-bromo-4-hydroxyphenyl)-2-((tert-butoxycarbonyl)amino)propanoyl)-L-prolinate] (Boc-[Tyr(3-Br)]-Pro-OMe)
- IC50 at 24 h [1]: 7 ± 2.5 mg/L (≈ 14.9 µM)
- IC50 at 24 h [2]: 18 ± 5 mg/L (≈ 38.2 µM)

SMILES: C[S+]([O-])CC[C@@H]1NC(=O)[C@@H]2CCCN2C1=O (stereo partly drawn) [Compound 1, cyclo (L-Pro-L-OMet)]
- IC50 at 24 h [1]: > 200 mg/L
- IC50 at 24 h [2]: > 200 mg/L

SMILES: O=C1N[C@@H](Cc2ccc(O)cc2)C(=O)N2CCC[C@@H]12 [Compound 2, cyclo (L-Pro-L-Tyr)]
- IC50 at 24 h [1]: > 200 mg/L
- IC50 at 24 h [2]: > 200 mg/L

SMILES: O=Cc1c[nH]c2ccccc12 [Compound 8, indole-carboxaldehyde]
- IC50 at 24 h [1]: 79 ± 6 mg/L (≈ 544 µM)
- IC50 at 24 h [2]: 72 ± 6 mg/L (≈ 496 µM)

SMILES: O=C1N[C@@H](Cc2ccc(O)c(Br)c2)C(=O)N2CCC[C@@H]12 [Compound 7, cyclo (L-Pro-L-Br-Tyr)]
- IC50 at 24 h [1]: > 200 mg/L
- IC50 at 24 h [2]: > 200 mg/L

SMILES: CC(C)[C@@H]1NC(=O)[C@@H]2CCCN2C1=O [Compound 4, cyclo (L-Pro-L-Val)]
- IC50 at 24 h [1]: > 200 mg/L
- IC50 at 24 h [2]: > 200 mg/L

SMILES: CC(C)C[C@@H]1NC(=O)[C@@H]2CCCN2C1=O [Compound 5, cyclo (L-Pro-L-Leu)]
- IC50 at 24 h [1]: > 200 mg/L
- IC50 at 24 h [2]: > 200 mg/L

SMILES: COC(=O)[C@H]1CCCN1C(=O)[C@H](Cc1ccc(O)c(Br)c1)NC(=O)OC(C)(C)C [Compound 13a, Methyl ((S)-3-(3-bromo-4-hydroxyphenyl)-2-((tert-butoxycarbonyl)amino)propanoyl)-D-prolinate] (Boc-[Tyr(3-Br)]-[dP]-OMe)
- IC50 at 24 h [1]: > 200 mg/L
- IC50 at 24 h [2]: > 200 mg/L

SMILES: O=C1N[C@@H](Cc2ccc(O)c(Br)c2)C(=O)N2CCC[C@H]12 [Compound 6, cyclo (D-Pro-L-Br-Tyr)]
- IC50 at 24 h [1]: > 200 mg/L
- IC50 at 24 h [2]: > 200 mg/L
